Measurements taken from patent US20130280169A1, “CENTRAL NERVOUS SYSTEM TISSUE-LABELING COMPOSITION, METHOD FOR LABELING CENTRAL NERVOUS SYSTEM TISSUE, AND SCREENING METHOD USING CENTRAL NERVOUS SYSTEM TISSUE-LABELING COMPOSITION” (CANON KABUSHIKI KAISHA, priority 2009, published 2013).

What was measured:
[1] = Excitation and fluorescence wavelength by FL4500 fluorescence spectrophotometer; settings: for λem / λex: 10 mg/mL DMSO solution diluted 500-fold with distilled water
[2] = test system: central nervous system tissues of juvenile zebrafish (7 dpf); assay: Labeling the central nervous system tissue of live 7 dpf juvenile zebrafish by immersion in labeling solution
Protocol: Subsequently, the labeling solution 1 in the well was removed and replaced by 1 mL of distilled water. This operation was repeated three times. Then, juvenile zebrafish was removed from the well and embedded in 5% low melting point agarose gel on a slide glass so as to restrict movement, and the state of labeling in the central nervous system tissues were observed from the lateral side of zebrafish by a fluorescence stereomicroscope (manufactured by Leica Microsystems, MZ16FA). Also, the brain nerve tissues were observed from the parietal region by a confocal microscope (manufactured by Carl Zeiss, Inc., Pascal Exciter).

[3] = test system: brain of juvenile zebrafish; settings: according to Patent Literature 3; cited from earlier work
[4] = test system: mouse brain tissue section; assay: Labeling of a mouse brain tissue section, confocal microscope; settings: 3-month-old B10 mouse, 10 μm frozen section, 1 ug/mL in PBS, incubation one hour
Protocol: (§1) A 3-month-old B10 mouse was sacrificed by diethyl ether anesthesia, and the brain is collected. The brain thus removed is embedded in an OCT compound, and then frozen in isopentane cooled with liquid nitrogen. The resulting brain was sliced into thin sections of approximately 10 μm in thickness in a cryostat cooled to −20° C. The thin sections were then placed on a slide glass and dried, whereby a section of the brain tissue was prepared. To the section of […] tissue thus prepared, a 1 ug/mL solution of the compound (13) in PBS was added, followed by incubation for one hour. After one hour, the slide glass was washed with PBST (PBS containing 0.2% Triton-X100) three times, and then sealed with a cover glass. Upon observation of the slide glass by a confocal microscope (manufactured by Carl Zeiss, Inc., Pascal
as §1, with “(27)” for “(13)”, “After one hour, the slide glass was washed with PBST (PBS containing 0.2% Triton-X100) three times, and then sealed with a cover glass. Upon observation of the slide glass by a confocal microscope (manufactured by Carl Zeiss, Inc., Pascal” left out

mouse brain = assay: Labeling of mouse brain after intraperitoneal administration; type: in vivo; settings: 3-month-old B10 mouse, 0.2 ml single intraperitoneal dose, brain collected after one hour
Protocol: The compound (13) is added to an equimolar solution of NaOH so that a concentration of 10 mg/ml is reached, and the resulting mixture is centrifuged at 14 krpm for five minutes to obtain a supernatant. Then, 0.2 ml of the supernatant thus obtained is intraperitoneally administered to a 3-month-old B10 mouse in a single dose. After one hour, the animal thus treated is sacrificed by diethyl ether anesthesia, and the brain is collected. The brain thus removed is embedded in an OCT compound, and then frozen in isopentane cooled with liquid nitrogen. The resulting brain was sliced into thin sections of approximately 10 μm in thickness in a cryostat cooled to −20° C. The thin sections were then placed on a slide glass and dried, whereby a section of the brain tissue was prepared. The brain tissue section thus prepared was observed under a confocal microscope (manufactured by Carl Zeiss, Inc., Pascal Exciter).
After one hour, the animal thus treated is sacrificed by diethyl ether anesthesia, and the brain is collected. The brain thus removed is embedded in an OCT compound, and then frozen in isopentane cooled with liquid nitrogen. The resulting brain was sliced into thin sections of approximately 10 μm in thickness in a cryostat cooled to −20° C. The thin sections were then placed on a slide glass and dried, whereby a section of the brain tissue was prepared. […]

[5] = 5 ηM DMSO solution (Examples 35 to 46)
[6] = 7 dpf juvenile zebrafish, labeling solution 1 μg/mL, one hour (Table 3)
[7] = 7 dpf juvenile zebrafish, labeling solution 1 μg/mL, one hour
[8] = aqueous solution, 10 mg/mL DMSO solution diluted 500-fold with distilled water (Table 2)
[9] = juvenile zebrafish, labeling solution 1 μg/mL, one hour (Table 2)
[10] = 5 μM chloroform solution (Examples 30 to 34)

## CCN1c2ccc(/C=C3/SC(=S)N(CCC(=O)O)C3=O)cc2CC1C (stereo not drawn) [Compound 40]
[1]; [5]
  Excitation wavelength λex: 509
  Fluorescence wavelength λem: 593
[2]; [6]
  Fluorescence sensitivity: ++

## Cn1c(=O)cc2c3c(c(NC4CCCCC4)ccc31)C(=O)c1ccccc1-2 [(8)]
[1]; aqueous solution
  λem: 619
  λex: 599
[2]; [7]
  Labeling property: ++
[2]; 7 dpf juvenile zebrafish, one hour, fluorescence stereomicroscope and confocal microscope
  State of labeling of optic nerve, optic tract, superior colliculus (optic tectum), pituitary gland, tectospinal (tectobulbar) tract and reticular formation: intensely labeled

## Cc1cc(-c2ccc(/N=N/c3ccc4c(S(=O)(=O)O)cc(S(=O)(=O)O)c(N)c4c3O)c(C)c2)ccc1/N=N/c1ccc2c(S(=O)(=O)O)cc(S(=O)(=O)O)c(N)c2c1O [Evans blue]
[3]
  Migration of administered dye into the brain confirmed up to: up to 4 dpf

## CCCN(CCC)c1ccc2cc(-c3nc4ccccc4[nH]3)c(=O)oc2c1 [Compound 25]
[1]; [8]
  Excitation wavelength λex: 463
  Fluorescence wavelength λem: 509
  Stokes shift λem − λex: 46
[2]; [9]
  Fluorescence sensitivity: ++
  Labeling property: ++

## CCCCn1c(=O)cc2c3c(c(NCCC4=CCCCC4)ccc31)C(=O)c1ccccc1-2 [Compound 32]
[1]; [10]
  Excitation wavelength λex: 544
  Fluorescence wavelength λem: 573
[2]; [6]
  Fluorescence sensitivity: +

## CCN1c2ccc(/C=C/C=C3/SC(=S)N(CCC(=O)O)C3=O)cc2C2CCCC21 (stereo not drawn) [Compound 43]
[1]; [5]
  Excitation wavelength λex: 564
  Fluorescence wavelength λem: 671
[2]; [6]
  Fluorescence sensitivity: ++

## CCN1c2ccc(/C=C3/SC(=S)N(CCC(=O)O)C3=O)cc2C2CCCC21 (stereo not drawn) [(13)]
[4]
  Labeling property in a mouse brain tissue section: confirmed to exert a labeling property
Mouse brain
  Labeling property in a mouse brain by intraperitoneal administration: confirmed to exert a labeling property
[1]; aqueous solution
  λem: 604
  λex: 576
[2]; [7]
  Labeling property: ++

## O=C1OC2(c3ccc(O)cc3Oc3cc(O)ccc32)c2ccccc21 [Fluorescein, reference compound]
[3]
  Migration of administered dye into the brain confirmed up to: ≤ 8 dpf
[2]; [7]
  Labeling property: −

## CN1c2ccc(/C=C3/SC(=S)N(CCC(=O)O)C3=O)cc2C2CCCC21 (stereo not drawn) [Compound 39]
[1]; [5]
  Excitation wavelength λex: 517
  Fluorescence wavelength λem: 590
[2]; [6]
  Fluorescence sensitivity: ++

## O=C1c2ccccc2-c2cc(=O)n(C3CCCCC3)c3ccc(NC4CCCCC4)c1c23 [Compound 29]
[1]; [10]
  Excitation wavelength λex: 547
  Fluorescence wavelength λem: 592
[2]; [6]
  Fluorescence sensitivity: +

## Cn1c(=O)cc2c3c(c(NCc4ccccc4)ccc31)C(=O)c1ccccc1-2 [(9)]
[1]; aqueous solution
  λem: 556
  λex: 480
[2]; [7]
  Labeling property: ++

## CCN1C(=S)N(c2ccccc2)C(=O)/C1=C/C=C1/Sc2ccccc2N1CC [(14)]
[1]; aqueous solution
  λem: 560
  λex: 530
[2]; [7]
  Labeling property: ++

## N=c1oc2ccc3ccccc3c2cc1-c1nc2ccccc2[nH]1 [Compound 17]
[1]; [8]
  Excitation wavelength λex: 410
  Fluorescence wavelength λem: 490
  Stokes shift λem − λex: 80
[2]; [9]
  Fluorescence sensitivity: +
  Labeling property: +

## CCCCOCCCNc1ccc2c3c(cc(=O)n2CCCC)-c2ccccc2C(=O)c13 [Compound 33]
[1]; [10]
  Excitation wavelength λex: 544
  Fluorescence wavelength λem: 573
[2]; [6]
  Fluorescence sensitivity: +

## CCN(CC)c1ccc2cc(-c3nc4ccc(C)cc4o3)c(=O)oc2c1 [Compound 27]
[4]
  Labeling property in a mouse brain tissue section: confirmed to exert a labeling property
[1]; [8]
  Excitation wavelength λex: 472
  Fluorescence wavelength λem: 504
  Stokes shift λem − λex: 32
[2]; [9]
  Fluorescence sensitivity: ++
  Labeling property: ++

## CCN(CC)c1ccc2cc3c(oc2c1)c(C#N)c(=O)n1c2ccccc2nc31 [(11)]
[1]; aqueous solution
  λem: 576
  λex: 555
[2]; [7]
  Labeling property: +

## COc1ccc2cc(-c3nc4ccccc4[nH]3)c(=O)oc2c1 [Compound 20]
[1]; [8]
  Excitation wavelength λex: 380
  Fluorescence wavelength λem: 470
  Stokes shift λem − λex: 90
[2]; [9]
  Fluorescence sensitivity: +
  Labeling property: +

## COc1ccc2cc(N3c4ccc(/C=C5/SC(=S)N(CCC(=O)O)C5=O)cc4C4CCCC43)ccc2c1 (stereo not drawn) [Compound 38]
[1]; [5]
  Excitation wavelength λex: 521
  Fluorescence wavelength λem: 646
[2]; [6]
  Fluorescence sensitivity: +

## CCCN1c2ccc(/C=C3/SC(=S)N(CCC(=O)O)C3=O)cc2C2CCCC21 (stereo not drawn) [Compound 42]
[1]; [5]
  Excitation wavelength λex: 519
  Fluorescence wavelength λem: 592
[2]; [6]
  Fluorescence sensitivity: ++

## CSc1ccc(N2c3ccc(/C=C4/SC(=S)N(CCC(=O)O)C4=O)cc3C3CCCC32)cc1 (stereo not drawn) [Compound 44]
[1]; [5]
  Excitation wavelength λex: 518
  Fluorescence wavelength λem: 647
[2]; [6]
  Fluorescence sensitivity: ++

## O=C(O)CCN1C(=O)/C(=C\c2ccc3c(c2)C2CCCC2N3Cc2ccccc2)SC1=S (stereo not drawn) [Compound 36]
[1]; [5]
  Excitation wavelength λex: 510
  Fluorescence wavelength λem: 584
[2]; [6]
  Fluorescence sensitivity: +

## CCN(CC)c1ccc2cc(-c3nc4ccccc4[nH]3)c(=N)oc2c1 [Compound 18]
[1]; [8]
  Excitation wavelength λex: 464
  Fluorescence wavelength λem: 514
  Stokes shift λem − λex: 50
[2]; [9]
  Fluorescence sensitivity: ++
  Labeling property: ++

## CCN(CC)c1ccc2cc(-c3nc4ccccc4s3)c(=O)oc2c1 [Compound 15]
[1]; [8]
  Excitation wavelength λex: 469
  Fluorescence wavelength λem: 555
  Stokes shift λem − λex: 86
[2]; [9]
  Fluorescence sensitivity: ++
  Labeling property: ++

## O=c1oc2ccc3ccccc3c2cc1-c1nc2ccccc2[nH]1 [Compound 28]
[1]; [8]
  Excitation wavelength λex: 410
  Fluorescence wavelength λem: 540
  Stokes shift λem − λex: 130
[2]; [9]
  Fluorescence sensitivity: +
  Labeling property: +

## COc1ccc2cc(-c3nc4ccccc4[nH]3)c(=N)oc2c1 [Compound 16]
[1]; [8]
  Excitation wavelength λex: 380
  Fluorescence wavelength λem: 470
  Stokes shift λem − λex: 90
[2]; [9]
  Fluorescence sensitivity: +
  Labeling property: +

## Cc1ccc2oc(=O)c(-c3nc4ccccc4[nH]3)cc2c1 [Compound 24]
[1]; [8]
  Excitation wavelength λex: 380
  Fluorescence wavelength λem: 490
  Stokes shift λem − λex: 110
[2]; [9]
  Fluorescence sensitivity: +
  Labeling property: +

## O=C(O)CCN1C(=O)/C(=C\c2cc(Br)c3c(c2)C2CCCC2N3c2ccc(Br)cc2)SC1=S (stereo not drawn) [Compound 34]
[1]; [5]
  Excitation wavelength λex: 474
  Fluorescence wavelength λem: 590
[2]; [6]
  Fluorescence sensitivity: +

## CCCCC(CC)CNc1ccc2c3c(cc(=O)n2CCCC)-c2ccccc2C(=O)c13 (stereo not drawn) [Compound 31]
[1]; [10]
  Excitation wavelength λex: 547
  Fluorescence wavelength λem: 574
[2]; [6]
  Fluorescence sensitivity: +

## CCCCn1c(=O)cc2c3c(c(NC4CCCCC4)ccc31)C(=O)c1ccccc1-2 [Compound 30]
[1]; [10]
  Excitation wavelength λex: 548
  Fluorescence wavelength λem: 575
[2]; [6]
  Fluorescence sensitivity: +

## CCn1c2ccccc2c2cc(/C=C3/SC(=S)N(CCC(=O)O)C3=O)ccc21 [Compound 41]
[1]; [5]
  Excitation wavelength λex: 452
  Fluorescence wavelength λem: 540
[2]; [6]
  Fluorescence sensitivity: +

## COc1ccc(N2c3ccc(/C=C4/SC(=S)N(CCC(=O)O)C4=O)cc3C3CCCC32)cc1 (stereo not drawn) [Compound 35]
[1]; [5]
  Excitation wavelength λex: 521
  Fluorescence wavelength λem: 634
[2]; [6]
  Fluorescence sensitivity: ++

## COc1cccc2cc(-c3nc4ccccc4[nH]3)c(=O)oc12 [Compound 22]
[1]; [8]
  Excitation wavelength λex: 360
  Fluorescence wavelength λem: 510
  Stokes shift λem − λex: 150
[2]; [9]
  Fluorescence sensitivity: +
  Labeling property: +

## CCN(CC)c1ccc2cc3c(oc2c1)c(C#N)c(=N)n1c2ccccc2nc31 [(10)]
[1]; aqueous solution
  λem: 577
  λex: 556
[2]; [7]
  Labeling property: ++

## rhodamine 123
[3]
  Migration of administered dye into the brain confirmed up to: ≤ 5 dpf

## CCCCNc1ccc2c3c(cccc13)C(=O)N(CCCC)C2=O [(12)]
[1]; aqueous solution
  λem: 551
  λex: 466
[2]; [7]
  Labeling property: ++

## O=C(O)CCN1C(=O)/C(=C\c2ccc3c(c2)C2CCCC2N3c2ccccc2)SC1=S (stereo not drawn) [Compound 37]
[1]; [5]
  Excitation wavelength λex: 502
  Fluorescence wavelength λem: 604
[2]; [6]
  Fluorescence sensitivity: ++

## CCN(CC)c1ccc2cc(-c3nc4cc(Cl)ccc4o3)c(=O)oc2c1 [Compound 23]
[1]; [8]
  Excitation wavelength λex: 422
  Fluorescence wavelength λem: 476
  Stokes shift λem − λex: 54
[2]; [9]
  Fluorescence sensitivity: +
  Labeling property: ++

## CCN1CCc2cc(/C=C3/SC(=S)N(CCC(=O)O)C3=O)ccc21 [Compound 45]
[1]; [5]
  Excitation wavelength λex: 510
  Fluorescence wavelength λem: 597
[2]; 7 dpf juvenile zebrafish, labeling solution 45 with 3 μg/mL dye compound, one hour (Table 3)
  Fluorescence sensitivity: +
